The values that follow come from US10954265B2 (Van Andel Research Institute, priority 2016, dated 2021).

Changes are numbered by the printed parent chain. “And” between values parts separate entries of the source, which are not always exact repeats. Equal entries are not always repeated.

Assay [1] has as its target T1, GR (Homo sapiens, UniProt P04150).
T1 sequence (P04150 1-777): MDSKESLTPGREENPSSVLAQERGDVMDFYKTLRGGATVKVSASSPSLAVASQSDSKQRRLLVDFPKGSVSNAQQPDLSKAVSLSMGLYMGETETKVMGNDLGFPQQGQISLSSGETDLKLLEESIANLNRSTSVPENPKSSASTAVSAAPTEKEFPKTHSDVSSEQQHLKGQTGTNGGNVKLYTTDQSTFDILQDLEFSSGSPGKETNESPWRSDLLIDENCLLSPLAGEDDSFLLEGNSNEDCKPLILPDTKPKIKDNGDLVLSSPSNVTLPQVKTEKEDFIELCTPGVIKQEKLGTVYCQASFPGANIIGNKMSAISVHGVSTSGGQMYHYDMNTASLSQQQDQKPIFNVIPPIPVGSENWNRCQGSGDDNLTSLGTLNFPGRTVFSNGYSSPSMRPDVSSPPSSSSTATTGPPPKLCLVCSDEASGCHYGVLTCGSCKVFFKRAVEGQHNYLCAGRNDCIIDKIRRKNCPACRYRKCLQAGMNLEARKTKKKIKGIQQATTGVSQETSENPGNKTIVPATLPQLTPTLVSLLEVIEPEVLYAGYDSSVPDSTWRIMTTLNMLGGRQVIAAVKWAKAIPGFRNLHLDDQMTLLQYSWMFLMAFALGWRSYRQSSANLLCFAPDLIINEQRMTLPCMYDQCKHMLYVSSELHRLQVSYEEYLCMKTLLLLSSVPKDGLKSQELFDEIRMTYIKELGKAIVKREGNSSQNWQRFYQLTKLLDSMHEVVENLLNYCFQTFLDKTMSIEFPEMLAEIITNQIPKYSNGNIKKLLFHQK
Nature of the assay: Determination of induction activity, MMTV-Luc reporter in AD293 cells transfected with pRShGR (Table 3, FIG. 14). The settings on record: for RLU / RLU/Renilla: single replicate wells; for activation at 0.01 µM / activation at 1 µM: AD293, 16 h, read-out: % to Dex induction; for fold induction at 0.01 µM / fold induction at 1 µM: AD293, read-out: Steroid Fold Induction; for % to Dex induction: relative to DEX 1000 nM. As for the experimental part:
(§1) AD293 cells were split at 20,000/well in 24 well plate one day before transfection. For transactivation, 100 ng pHHLuc (MMTV-Luc) plasmid, 0.1 ng pRShGR together with 5 ng phRGtkRenilla were transfected by X-tremeGENE 9 (Roche) into AD293 cells per well. For transreperssion, 10 ng AP1-Luc, 100 ng pRShGR and 5 ng phRGtkRenilla were transfected into AD293 cells per well. One day after transfection, cells were induced by different treatment (steroids or vehicle) 16 hrs overnight. Cells were harvest by 1× passive lysis buffer (Promega), luciferase activity was assayed by the Dual-Glo Luciferase system (Promega). Data were plotted by Luciferase Value/Renilla Value, as Relative Luciferase Unit (RLU).
AD293 cells were transfected with 0.1 ng pRShGR, 100 ng MMTV-Luc reporter, and 10 ng TK-Renilla internal control per well in a 24-well plate. One day after transfection, cells were induced by candidate compounds at a concentration of 10 nm or 1 um (see FIG. 14). Cells were harvested and luciferase activity was measured by Promega Dual Luciferacse kit.

For assay [2], the system named is OVA-induced mouse asthma model. The assay is described as follows: OVA-induced mouse asthma model, lung function (RL) by FlexiVent. Format: in vivo. As for the experimental part:
A OVA-induced mouse asthma model was used to examine the anti-inflammatory effect of candidate compounds. 7-9 weeks old Balb/c mice were primarily immunized with OVA (ovalbumin). […] Related Lung (RL) function in response to acetylcholine was measured by the forced oscillation techniques with the FlexiVent system (SCIREQ).
To evaluate the effect of candidate compounds in repressing lung inflammation, a OVA-induced mouse asthma model was used (RL: relative lung function).

The target in assay [3] is T1, GR. Nature of the assay: Potency of candidate compounds in MMTV-luciferase reporter, full dose-response (FIG. 16A). Format: cell-based. More on the design: expressed in transfected cells; host or cells: AD293. Particulars: doses 0.01 nM to 1000 nM. From the text:
To evaluate the potency of candidate compounds in a reporter system, an MMTV-luciferase reporter was used.

The target in assay [4] is T1, GR. Nature of the assay: GR transactivation, MMTV-driven luciferase reporter (MMTV-Luc) in AD293 cells. Format: cell-based. Further details: expressed in transfected cells; host or cells: AD293. The settings on record: transactivation assay, FIG. 3B. As for the experimental part:
as §1

The target of another assay is T2, GR Q642N (Homo sapiens, UniProt P04150, Q642N).
T2 construct: expressed in transfected cells; host or cells: AD293
T2 sequence (P04150 1-777 Q642N): T1 sequence (P04150 1-777) with Q642N
Nature of the assay: Transactivation on MMTV-Luc in AD293 cells, GR Q642N mutant. Format: cell-based. Particulars: compared with wild type, up to saturation concentration. Here is the method: as §1

As to `CCOC(=O)[C@@]1(OC(=O)c2ccco2)[C@H](C)CC2C3C=C(F)C4=Cc5c(cnn5-c5ccccc5)C[C@]4(C)[C@@]3(F)C(O)C[C@@]21C` (stereo partly shown) [Compound 2], on GR [1] (10 nM), the “Mean (RLU/Renilla)” value is 1.328; the RLU was 221,760 and 206,200 and 190,520; the RLU/Renilla was 1.316 and 1.430 and 1.238. Besides, at GR [1] (1000 nM), the “Mean (RLU/Renilla)” value is given as 1.311; the RLU is 296,680 and 295,960 and 323,600; the RLU/Renilla is 1.365 and 1.267 and 1.302. Also, on GR [1], the activation at 0.01 µM turned out to be 92.6%, the activation at 1 µM was 91.5%, the fold induction at 0.01 µM turned out to be 26.9 and the fold induction at 1 µM is 26.6.
With `C[C@@H]1CC2C3C=C(F)C4=Cc5c(cnn5-c5ccccc5)C[C@]4(C)[C@@]3(F)C(O)C[C@]2(C)[C@@]1(OC(=O)c1ccco1)C(=O)OCF` (stereo partly shown) [Compound 4], on GR [1] (10 nM), the “Mean (RLU/Renilla)” value worked out at 1.332; the RLU was 288,320 and 249,160 and 244,360; the RLU/Renilla was 1.518 and 1.258 and 1.222. On GR [1] (1000 nM), the “Mean (RLU/Renilla)” value was 1.153; the RLU was 222,960 and 225,280 and 226,280; the RLU/Renilla was 1.178 and 1.134 and 1.147. For the same molecule, on GR [1], the activation at 0.01 µM came to 92.9%, the activation at 1 µM amounted to 80.4%, the fold induction at 0.01 µM is 27 and the fold induction at 1 µM amounted to 23.4. Moreover, the “repression of lung inflammation compared with VSGC12” value in assay [2] (0.125 mg/kg, FIG. 16B) is reported as “much higher repression activity”. Besides, the “increase in potency over fluticasone furoate (FF)” value in assay [2] (FIG. 15) is given as 8 fold. Moreover, in assay [2] (FIG. 15, side by side comparison), the “potency in repressing lung inflammation compared with FF” value is listed as “much more potent”. Moreover, the “potency compared with VSGC12 and DEX” value on GR [3] is listed as “higher potency”.
On to `C[C@]12C=CC(=O)C=C1CC[C@@H]1[C@@H]2[C@@H](O)C[C@@]2(C)[C@H]1CC[C@]2(O)C(=O)CO` [prednisolone], for which, on GR [4], the “leftward shift of the cortisol dose-response curve” value is reported as “about 5 fold”.
Regarding `CC(C)OC(=O)[C@@]1(OC(=O)c2ccco2)[C@H](C)CC2C3C=C(F)C4=Cc5c(cnn5-c5ccccc5)C[C@]4(C)[C@@]3(F)C(O)C[C@@]21C` (stereo partly shown) [Compound 3], on GR [1] (10 nM), the “Mean (RLU/Renilla)” value was found to be 1.462; the RLU is 295,280 and 295,520 and 299,320; the RLU/Renilla was 1.505 and 1.300 and 1.580. Further, at GR [1] (1000 nM), the “Mean (RLU/Renilla)” value stood at 1.219; the RLU was 249,160 and 279,160 and 254,120; the RLU/Renilla is 1.143 and 1.332 and 1.181. Besides, at GR [1], the activation at 0.01 µM is 102%, the activation at 1 µM worked out at 85%, the fold induction at 0.01 µM turned out to be 29.6 and the fold induction at 1 µM worked out at 24.7.
Consider `C[C@@H]1CC2C3C=C(F)C4=Cc5c(cnn5-c5ccccc5)C[C@]4(C)[C@@]3(F)C(O)C[C@]2(C)[C@@]1(OC(=O)c1ccco1)C(=O)OC(C)(C)C` (stereo partly shown) [Compound 6], for which, at GR [1] (10 nM), the “Mean (RLU/Renilla)” value was 1.417; the RLU is 353,720 and 347,400 and 378,600; the RLU/Renilla is 1.291 and 1.356 and 1.605. Moreover, at GR [1] (1000 nM), the “Mean (RLU/Renilla)” value is 1.614; the RLU was 385,840 and 290,120 and 330,680; the RLU/Renilla is 1.694 and 1.490 and 1.659. Besides, on GR [1], the activation at 0.01 µM was 98.8%, the activation at 1 µM came to 113%, the fold induction at 0.01 µM was determined as 28.7 and the fold induction at 1 µM came to 32.7.
As to `C[C@]12CCC(=O)C=C1CC[C@@H]1[C@@H]2[C@@H](O)C[C@@]2(C)[C@H]1CC[C@]2(O)C(=O)CO` [cortisol, Cortisol], the “full dose-response curve of Q642N” value on GR Q642N is “inactive”.
For the molecule `C[C@@H]1CC2C3C=C(F)C4=Cc5c(cnn5-c5ccccc5)C[C@]4(C)[C@@]3(F)C(O)C[C@]2(C)[C@@]1(OC(=O)c1ccco1)C(=O)SCF` (stereo partly shown) [Compound 5], at GR [1] (10 nM), the “Mean (RLU/Renilla)” value was found to be 1.444; the RLU was 298,760 and 265,160 and 249,760; the RLU/Renilla was 1.485 and 1.433 and 1.413. Besides, on GR [1] (1000 nM), the “Mean (RLU/Renilla)” value is given as 1.235; the RLU is 346,400 and 350,240 and 345,760; the RLU/Renilla is 1.108 and 1.227 and 1.371. On GR [1], the activation at 0.01 µM was 101%, the activation at 1 µM amounted to 86.1%, the fold induction at 0.01 µM was found to be 29.3 and the fold induction at 1 µM amounted to 25.
As to `C[C@@H]1C[C@H]2[C@@H]3CCC4=CC(=O)C=C[C@]4(C)[C@@]3(F)[C@@H](O)C[C@]2(C)[C@@]1(O)C(=O)CO` [DEX, dexamethasone, reference compound], the “% to Dex induction” value amounted to 52.82% at GR [1] (10 nM) and 100% at GR [1] (1000 nM).
With `CON(C)C(=O)[C@@]1(OC(=O)c2ccco2)[C@H](C)CC2C3C=C(F)C4=Cc5c(cnn5-c5ccccc5)C[C@]4(C)[C@@]3(F)C(O)C[C@@]21C` (stereo partly shown) [VSGC12, reference compound], on GR [1] (10 nM), the “Mean (RLU/Renilla)” value was found to be 1.402; the RLU was 316,240 and 298,600 and 289,480; the RLU/Renilla was 1.598 and 1.522 and 1.085. On GR [1] (1000 nM), the “Mean (RLU/Renilla)” value came to 1.682; the RLU is 331,400 and 309,120 and 312,400; the RLU/Renilla was 1.767 and 1.765 and 1.513. In addition, on GR [1], the activation at 0.01 µM came to 97.8%, the activation at 1 µM was 117%, the fold induction at 0.01 µM came to 28.4 and the fold induction at 1 µM was determined as 34.1.
As to `C[C@@H]1CC2C3C=C(F)C4=Cc5c(cnn5-c5ccccc5)C[C@]4(C)[C@@]3(F)C(O)C[C@]2(C)[C@@]1(OC(=O)c1ccco1)C(=O)O` (stereo partly shown) [Compound 1], at GR [1] (10 nM), the “Mean (RLU/Renilla)” value is 0.119; the “induction activity compared to other candidate compounds and VSGC12” value is recorded as “much lower induction activity”; the RLU was 21,720 and 17,200 and 24,320; the RLU/Renilla was 0.116 and 0.093 and 0.149. Further, on GR [1] (1000 nM), the “Mean (RLU/Renilla)” value amounted to 0.806; the RLU was 186,480 and 180,880 and 219,480; the RLU/Renilla is 0.642 and 0.818 and 0.959. Besides, on GR [1], the activation at 0.01 µM worked out at 8.33%, the activation at 1 µM is 56.2%, the fold induction at 0.01 µM amounted to 2.42 and the fold induction at 1 µM turned out to be 16.4.
